Measurements taken from patent publication US20200163984A1, “USE OF ISOVALERYL SPIRAMYCIN I, II AND/OR III IN MANUFACTURING MEDICAMENT FOR TREATING AND/OR PREVENTING TUMOR, AND MEDICAMENT” (SHENYANG FUYANG PHARMACEUTICAL TECHNOLOGY CO., LTD., priority 2017, published 2020).

Legend:
[1] = test system: transplanted tumor of human lymphoma cell U937; experiment: U937 transplanted tumor in nude mice; conditions: for Tumor Volume (mm3) (d 1): d1
Procedure: (§1) U937 cells in a logarithmic growth phase were taken and subjected to a trypan blue exclusion experiment showing that the cell viability was more than 95%, then the cells were subjected to trypsinization, centrifugation, and supernatant removal. Then cell concentration was adjusted to 1×10^7/ml with matrigel, then each nude mouse was inoculated subcutaneously with 0.2 ml of cells at its right armpit and recorded as the first day of inoculation. When the tumor grows to be greater than or equal to 100 mm^3, the mice were randomly divided into 11 groups with 6 mice in each group: a model group, a cyclophosphamide group, isovaleryl spiramycin I groups with doses of 25, 50 and 100 mg/kg, isovaleryl spiramycin II groups with doses of 25, 50 and 100 mg/kg, and isovaleryl spiramycin III groups with doses of 25, 50 and 100 mg/kg. Each group was continuously administered intragastrically for 30 days with a dose of 20 ml/kg. The mice were sacrificed the next day after drug withdrawal and the indicators were tested. The long diameter and short diameter of the tumor, and the body weight of each mouse were recorded every 3 days from drug administration to nude mouse sacrifice.
(§2) The body weight of the nude mice and the long diameter (a) and short diameter (b) of the transplanted tumor were measured every 3 days, and the tumor volume (v), relative tumor volume (RTV) and relative tumor proliferation rate (T/C) are calculated respectively according to the following formulas, wherein V=a×b^2/2; RTV=V/V0 (V0 is the tumor volume before administration, V is the tumor volume before sacrifice), and T/C (%)=treatment group RTV/model control group RTV×100%.
(§3) Each mouse was weighed and sacrificed. After the tumor was completely stripped off from the body of the mouse, the non-tumor tissues such as blood stains and fat were removed to weigh the tumor and calculate the tumor growth inhibition rate. The average tumor weight of each group of mice is used as an indicator of efficacy. Tumor growth inhibition rate (%)=(1−the average tumor weight of the treatment group/the average tumor weight of the model group)×100%.

[2] = test system: transplanted tumor of human thyroid cancer cell TPC-1; experiment: TPC-1 transplanted tumor in nude mice; conditions: for Tumor Volume (mm3) (d30): d 30
Procedure: as §1, with “Then” for “U937 cells in a logarithmic growth phase were taken and subjected to a trypan blue exclusion experiment showing that the cell viability was more than 95%, then the cells were subjected to trypsinization, centrifugation, and supernatant removal. Then”, “group:” for “group: a model group, a cyclophosphamide group,”
as §2, §3

[3] = Thymus index and spleen index of Lewis lung cancer tumor-bearing mice; conditions: n = 6
Procedure: In the Lewis lung cancer model, the mice inoculated with the tumor were randomly divided into groups with 10 mice in each group the next day of inoculation. The groups included: a model control group, a positive drug cyclophosphamide control group (CTX, 30 mg/kg), isovaleryl spiramycin I groups with doses of 13, 26 and 52 mg/kg; isovaleryl spiramycin II groups with doses of 13, 26 and 52 mg/kg; isovaleryl spiramycin III groups with doses of 13, 26 and 52 mg/kg. Each group was continuously administered intragastrically for 15 days with a dose of 20 ml/kg.

[4] = U937, high dose (100 mg/kg in method) i.g. 30 days
[5] = U937, low dose (25 mg/kg in method) i.g. 30 days
[6] = U937, medium dose (50 mg/kg in method) i.g. 30 days
[7] = TPC-1, high dose (100 mg/kg in method) i.g. 30 days
[8] = TPC-1, low dose (25 mg/kg in method) i.g. 30 days
[9] = TPC-1, medium dose (50 mg/kg in method) i.g. 30 days

## CCC(=O)O[C@@H]1CC(=O)O[C@H](C)C/C=C/C=C/[C@H](O[C@H]2CC[C@H](N(C)C)[C@@H](C)O2)[C@H](C)C[C@H](CC=O)[C@H](O[C@@H]2O[C@H](C)[C@@H](O[C@H]3C[C@@](C)(O)[C@@H](OC(=O)CC(C)C)[C@H](C)O3)[C@H](N(C)C)[C@H]2O)[C@H]1OC [Isovaleryl spiramycin III, isovaleryl spiramycin III]
[1]; [4]
  Relative Tumor Proliferation Rate (T/C): 38.66%
  tumor growth inhibition rate: 61.77%
[1]; [5]
  Relative Tumor Proliferation Rate (T/C): 63.36%
  tumor growth inhibition rate: 41.19%
[1]; U937, low, medium and high doses, P<0.05
  tumor volume and relative tumor volume compared with the model group: significantly lower
[1]; [6]
  Relative Tumor Proliferation Rate (T/C): 49.30%
  tumor growth inhibition rate: 53.03%
[1]; U937 nude mice, 12.5 mg/kg
  Inhibition Rate (%): 41.19%
  Relative Tumor Proliferation Rate (T/C): 63.36%
  Relative Tumor Volume (RTV): 10.80 ± 3.02
  Tumor Weight: 1.14 ± 0.54 g
  Tumor Volume (mm3) (d 1): 119.70 ± 18.30 mm3
  Tumor Volume (mm3) (d30): 1314.25 ± 479.76 mm3
[1]; U937 nude mice, 25 mg/kg
  Inhibition Rate (%): 53.03%
  Relative Tumor Proliferation Rate (T/C): 49.30%
  Relative Tumor Volume (RTV): 8.40 ± 2.25
  Tumor Weight: 0.91 ± 0.51 g
  Tumor Volume (mm3) (d 1): 112.93 ± 27.42 mm3
  Tumor Volume (mm3) (d30): 939.79 ± 296.72 mm3
[1]; U937 nude mice, 50 mg/kg
  Inhibition Rate (%): 61.77%
  Relative Tumor Proliferation Rate (T/C): 38.66%
  Relative Tumor Volume (RTV): 6.59 ± 0.90
  Tumor Weight: 0.74 ± 0.18 g
  Tumor Volume (mm3) (d 1): 112.85 ± 21.90 mm3
  Tumor Volume (mm3) (d30): 728.49 ± 51.66 mm3
[1]; mouse, in vivo
  mouse weight compared with the model group: no significant changes
[1]; mouse, in vivo, 12.5 mg/kg
  Body Weight (g) (d1): 20.84 ± 0.68 g
  Body Weight (g) (d30): 20.92 ± 0.63 g
[1]; mouse, in vivo, 25 mg/kg
  Body Weight (g) (d1): 20.91 ± 0.58 g
  Body Weight (g) (d30): 20.74 ± 0.352 g
[1]; mouse, in vivo, 50 mg/kg
  Body Weight (g) (d1): 21.16 ± 0.61 g
  Body Weight (g) (d30): 21.24 ± 0.50 g
[2]; [7]
  Relative Tumor Proliferation Rate (T/C): 34.75%
  tumor growth inhibition rate: 62.94%
[2]; [8]
  Relative Tumor Proliferation Rate (T/C): 61.93%
  tumor growth inhibition rate: 39.06%
[2]; TPC-1, low, medium and high doses, P<0.05
  tumor volume and relative tumor volume compared with the model group: significantly lower
[2]; [9]
  Relative Tumor Proliferation Rate (T/C): 45.01%
  tumor growth inhibition rate: 60.25%
[2]; dose 25 mg/kg
  Inhibition Rate (%): 39.06%
  Relative Tumor Proliferation Rate (T/C): 61.93%
  Relative Tumor Volume (RTV): 10.19 ± 2.79
  Tumor Weight: 1.47 ± 0.44 g
  Tumor Volume (mm3) (d 1): 119.35 ± 3.84 mm3
  Tumor Volume (mm3) (d30): 1210.76 ± 295.50 mm3
[2]; dose 50 mg/kg
  Inhibition Rate (%): 60.25%
  Relative Tumor Proliferation Rate (T/C): 45.01%
  Relative Tumor Volume (RTV): 7.41 ± 2.51
  Tumor Weight: 0.96 ± 0.43 g
  Tumor Volume (mm3) (d 1): 116.75 ± 5.22 mm3
  Tumor Volume (mm3) (d30): 866.73 ± 306.25 mm3
[2]; dose 100 mg/kg
  Inhibition Rate (%): 62.94%
  Relative Tumor Proliferation Rate (T/C): 34.75%
  Relative Tumor Volume (RTV): 5.72 ± 3.04
  Tumor Weight: 0.90 ± 0.44 g
  Tumor Volume (mm3) (d 1): 115.43 ± 7.58 mm3
  Tumor Volume (mm3) (d30): 654.78 ± 338.68 mm3
[2]; mouse, in vivo
  mouse weight compared with the model group: no significant changes
[2]; mouse, in vivo, 25 mg/kg
  Body Weight (g) (d1): 21.13 ± 1.48 g
  Body Weight (g) (d30): 23.49 ± 1.02 g
[2]; mouse, in vivo, 50 mg/kg
  Body Weight (g) (d1): 21.43 ± 1.85 g
  Body Weight (g) (d30): 24.06 ± 1.71 g
[2]; mouse, in vivo, 100 mg/kg
  Body Weight (g) (d1): 20.76 ± 2.13 g
  Body Weight (g) (d30): 23.72 ± 1.60 g
[3]; dose 13 mg/kg
  Spleen Index (%): 0.62 ± 0.25%
  Thymus Index (%): 0.12 ± 0.10%
[3]; dose 26 mg/kg
  Spleen Index (%): 0.68 ± 0.11%
  Thymus Index (%): 0.11 ± 0.07%
[3]; dose 52 mg/kg
  Spleen Index (%): 0.74 ± 0.23%
  Thymus Index (%): 0.13 ± 0.06%
